ChEMBL document CHEMBL1201862, “PubChem BioAssay data set” (2004)
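Results reflect a 48-hour exposure of cells in 96-well plates to compound at five concentrations. GI50 marks 50% less growth.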 Calls of active or inactive are those of the source. Cut-off read from the data, not from the text of the source: active = GI50 up to about 1.1 µM and inactive = higher.

Experiments:
Assay in all cases: NCI tumour cell line growth inhibition, 48 h
DMS-114 = tested on: DMS-114
SNB-78 = tested on: SNB-78
M19-MEL = tested on: M19-MEL
DMS-273 = tested on: DMS-273
HOP-18 = tested on: HOP-18
DLD-1 = tested on: DLD-1
RXF 631 = tested on: RXF 631
KM-20L2 = tested on: KM-20L2
XF498 = tested on: XF498

| SMILES | GI50 (DMS-114) | GI50 (SNB-78) | GI50 (M19-MEL) | GI50 (DMS-273) | GI50 (HOP-18) | GI50 (DLD-1) | GI50 (RXF 631) | GI50 (KM-20L2) | GI50 (XF498) |
| --- | --- | --- | --- | --- | --- | --- | --- | --- | --- |
| C/C(=N\N=C(\N)S)c1ccc(Oc2ccccc2)cc1 | 3.03 µM (inactive) | 14.2 µM (inactive) | 15.1 µM (inactive) | 5.96 µM (inactive) | 14.1 µM (inactive) | 3.44 µM (inactive) | 13.8 µM (inactive) | 10.7 µM (inactive) |  |
| O=c1ncc(F)cn1C1OC(CO)C(O)C1O (stereo not given) | > 21.2 µM (inactive) | > 29.7 µM (inactive) | > 24.6 µM (inactive) | 16.7 µM (inactive) | > 31.5 µM (inactive) | > 35.8 µM (inactive) | 41.6 µM (inactive) | > 32.9 µM (inactive) | > 100 µM (inactive) |
| [O-][S+]1c2ccccc2N=C(c2ccc3ccccc3c2)CC1c1ccccc1 (stereo not given) |  | 47.3 µM (inactive) | 17.9 µM (inactive) | 38.6 µM (inactive) |  | 19 µM (inactive) |  | 18.7 µM (inactive) | 23.9 µM (inactive) |
| O=C1/C(=C/c2ccccc2)CN(C(=O)/C=C/c2ccccc2)C/C1=C\c1ccccc1 |  | 22 µM (inactive) | 5.22 µM (inactive) | 4.74 µM (inactive) | 33.7 µM (inactive) | 4.14 µM (inactive) | 27.1 µM (inactive) | 12.8 µM (inactive) | 18.6 µM (inactive) |
| Cc1ccc2nc(NC(=O)C(=O)CC(=O)c3cccc4ccccc34)sc2c1 |  | 32.9 µM (inactive) | 35.5 µM (inactive) | 40.4 µM (inactive) | 24.7 µM (inactive) | 49.7 µM (inactive) |  | 46.3 µM (inactive) | 45.9 µM (inactive) |
| O=C1CCC(=O)C12CCc1cccc(O)c12 | > 100 µM (inactive) | > 100 µM (inactive) | > 100 µM (inactive) | > 100 µM (inactive) | > 100 µM (inactive) | > 100 µM (inactive) |  | > 100 µM (inactive) | > 100 µM (inactive) |
| CCCOC(=O)C1CCC(=O)N1C(=O)C(C)Cl (stereo not given) | > 100 µM (inactive) | > 100 µM (inactive) | > 100 µM (inactive) | > 100 µM (inactive) | > 100 µM (inactive) | > 100 µM (inactive) |  | > 100 µM (inactive) | > 100 µM (inactive) |
| O=C(O)CNCc1c2ccccc2[n+]([O-])c2ccccc12 | 25.9 µM (inactive) | 92.3 µM (inactive) | 85.7 µM (inactive) | 46.7 µM (inactive) | 52.7 µM (inactive) | 39.4 µM (inactive) | 83.4 µM (inactive) | 42.4 µM (inactive) |  |
| CC1CN1P1(N2CC2C)=NP(N2CC2C)(N2CC2C)=NP(N2CC2C)(N2CC2C)=N1 (stereo not given) |  |  | > 50 µM (inactive) | > 50 µM (inactive) | > 50 µM (inactive) | > 50 µM (inactive) |  | > 50 µM (inactive) | > 50 µM (inactive) |
| COc1ccc(OC)c(NC(=O)C2=C(C)NC(C)=C(C(=O)Nc3cc(OC)ccc3OC)C2c2ccco2)c1 | > 100 µM (inactive) | > 100 µM (inactive) | > 100 µM (inactive) | 95.9 µM (inactive) |  | > 100 µM (inactive) |  | > 100 µM (inactive) | > 100 µM (inactive) |
| CC12OC(=O)C(C#N)C1(C)C1C(=O)CCCC12 (stereo not given) | > 100 µM (inactive) |  | > 100 µM (inactive) | > 100 µM (inactive) | > 100 µM (inactive) | > 100 µM (inactive) |  | > 100 µM (inactive) | > 100 µM (inactive) |
| COc1ccc(OC)c(/C=C2\CCc3ccccc3C2=O)c1 | 1.92 µM (inactive) |  | 3.72 µM (inactive) | 1.12 µM (active) | 4.85 µM (inactive) | 5.36 µM (inactive) |  | 2.9 µM (inactive) | 1.24 µM (inactive) |
| C/C=C(\C)C(=O)N1c2ccccc2CC1c1c(C)[nH]c2ccccc12 (stereo not given) |  | 86.5 µM (inactive) | 61.7 µM (inactive) | 39.1 µM (inactive) |  | 8.18 µM (inactive) | > 100 µM (inactive) | 47.4 µM (inactive) |  |
| CCOC(=O)c1c[nH]c2c(ccc3ncccc32)c1=O | > 100 µM (inactive) | > 100 µM (inactive) | > 100 µM (inactive) | > 100 µM (inactive) | > 100 µM (inactive) | > 100 µM (inactive) |  | > 100 µM (inactive) |  |
| CN1CCN(C)C12C=CC=CC21CC1 | > 100 µM (inactive) | > 100 µM (inactive) | > 100 µM (inactive) | > 100 µM (inactive) | > 100 µM (inactive) | > 100 µM (inactive) | > 100 µM (inactive) | > 100 µM (inactive) | > 100 µM (inactive) |
| N/C(=C\c1ccc(OCc2ccccc2)c(OCc2ccccc2)c1[N+](=O)[O-])C(=O)O |  | > 100 µM (inactive) | > 100 µM (inactive) | > 100 µM (inactive) | > 100 µM (inactive) | > 100 µM (inactive) |  | > 100 µM (inactive) |  |
| COc1ccc(/C(Cl)=C/c2cc(OC)ccc2OC)cc1 | 42.3 µM (inactive) | 79.6 µM (inactive) | 80 µM (inactive) | 35.2 µM (inactive) | > 100 µM (inactive) | 79.4 µM (inactive) |  | 93.3 µM (inactive) | 71.3 µM (inactive) |
| COc1cc2c3c(c1OCc1ccccc1)NCCC3NCC2 (stereo not given) | > 100 µM (inactive) | > 100 µM (inactive) | > 100 µM (inactive) | > 100 µM (inactive) |  | > 100 µM (inactive) | > 100 µM (inactive) | > 100 µM (inactive) | > 100 µM (inactive) |
| CCN(CC)c1ccc(C2N3CCCCC3[C@@H]3c4[nH]c5ccccc5c4CCN23)cc1 (stereo not given in full) | 14 µM (inactive) | 22.1 µM (inactive) | 23.7 µM (inactive) | 32.9 µM (inactive) | > 100 µM (inactive) | 26 µM (inactive) |  | 29.3 µM (inactive) | 17.1 µM (inactive) |
| CCCCN(CCCC)CC(C(=O)Nc1ccc([N+](=O)[O-])cc1[N+](=O)[O-])/C(C)=N\NC(=S)NN (stereo not given) | > 100 µM (inactive) |  | > 100 µM (inactive) | > 100 µM (inactive) |  | > 100 µM (inactive) |  | > 100 µM (inactive) | > 100 µM (inactive) |
| C[N+](C)(C)CC(=O)N/N=C(\C(=O)NC1=C(Cl)C(=O)c2ccccc2C1=O)C(C#N)c1nc(-c2ccc([N+](=O)[O-])cc2)cs1 (stereo not given) | 3.26 µM (inactive) | 11.3 µM (inactive) | 0.889 µM (active) | 9.02 µM (inactive) | 6.4 µM (inactive) | 11.3 µM (inactive) |  | 14 µM (inactive) | 9.46 µM (inactive) |
| O=C1/C(=C/c2ccc3c(c2)OCO3)CCC1CN1CCOCC1 (stereo not given) | 5.83 µM (inactive) | 9.66 µM (inactive) | 4.53 µM (inactive) | 8.79 µM (inactive) | 17.3 µM (inactive) | 2.39 µM (inactive) | 15.8 µM (inactive) | 14.8 µM (inactive) |  |
| COc1cc(C2c3cc4c(cc3[C@@H](NCCN3CCCCC3)C3COC(=O)[C@H]23)OCO4)cc(OC)c1O (stereo not given in full) |  | 2.57 µM (inactive) | 0.805 µM (active) | 0.0726 µM (active) | 0.303 µM (active) | 1.58 µM (inactive) |  | 1.17 µM (inactive) |  |
| COC(=O)CC(C(C(=O)OC)C(=O)OC)N1C(=O)OC(c2ccccc2)C1c1ccccc1 (stereo not given) | 45.6 µM (inactive) |  | > 100 µM (inactive) | > 100 µM (inactive) | > 100 µM (inactive) | 68.5 µM (inactive) |  | > 100 µM (inactive) |  |
| CC1=C(N(C)C)C(=O)c2nc3n(c2C1=O)CCC3OC(N)=O (stereo not given) | 16.1 µM (inactive) | 23 µM (inactive) | 1.7 µM (inactive) | 15.8 µM (inactive) | 17.7 µM (inactive) | 16.2 µM (inactive) |  | 20.2 µM (inactive) | 23.9 µM (inactive) |
| Cc1c2ccncc2c(C)c2c1[nH]c1ccc(Oc3ccccc3)cc12 | 2.3 µM (inactive) | 2.28 µM (inactive) | 2.43 µM (inactive) | 1.76 µM (inactive) | 6.04 µM (inactive) | 2.37 µM (inactive) | 2.57 µM (inactive) | 1.87 µM (inactive) | 1.45 µM (inactive) |
| Cc1c(O)c(=O)ccn1CCN | > 100 µM (inactive) | > 100 µM (inactive) | > 100 µM (inactive) | > 100 µM (inactive) | > 100 µM (inactive) | > 100 µM (inactive) | > 100 µM (inactive) | > 100 µM (inactive) |  |
